Assay [1] has as its system DsRedMN1-MUC1. Briefly: Localization in 293T cells expressing DsRedMN1-MUC1, immunofluorescence microscopy. The class given is cell-based, human. Particulars: 5 μM FITC-GO-203, 3 h. As to the method: (§1) Human ZR-75-1 breast cancer (ATTC) and H1975 lung cancer (ATTC) cell lines were grown in RPMI 1640 supplemented with 10% heat-inactivated fetal bovine serum (HI-FBS), 100 units/ml penicillin, and 100 μg/ml streptomycin. 293T cells were grown in DMEM with 10% HI-FBS, antibiotics, and 2 mmol/L L-glutamine. Cells were treated with FITC conjugated-GO-202 (FITC-GO-202), FITC-GO-203 or unconjugated GO-203 synthesized by the MIT Biopolymer Laboratory (Cambridge, MA) and AnaSpec, Inc (San Jose, CA). The p3XFLAG-CMV-10 (Sigma, St. Louis, MO), pEGFP-C1 and pDsRed-Monomer-N1 (Clontech, Mountain View, CA) vectors were used for transfection of rat and dog MUC1-CD and full length human MUC1 in 293T cells in the presence of Lipofectamine 2000 (Life Technologies, Grand Island, NY).
(§2) 293T cells were transfected with MUC1-pDsRed-Monomer-N1 in the presence of Lipofectamine 2000 for 48 h. The cells were then incubated with FITC-GO-203 for 3 h and examined using a Nikon-deconvolution wide-field epifluorescence system with a 100x oil immersion objective. Images were captured using NIS-element software (Nikon) and analyzed by ImageJ software.

Assay [2] relates to endogenous MUC1-C. Briefly: Binding to endogenous MUC1-C in H1975 cells, coimmunoprecipitation. The following applies: 5 μM FITC-GO-203 overnight, non-reducing. It is filed as cell-based, human. As to the method:
as §1
(§3) Cell lysates were prepared as described. Soluble proteins were immunoprecipitated with anti-FLAG (Sigma, St. Louis, MO), anti-MUC1-C (Thermo Fisher Scientific, Waltham, MA) or a control IgG. The precipitates and lysates not subjected to immunoprecipitation were immunoblotted with anti-MUC1-C, anti-GFP (Abcam, Cambridge, MA), anti-FLAG and anti-FITC (Life Technologies, Grand Island, NY). Reactivity was detected with horseradish peroxidase-conjugated secondary antibodies and chemiluminescence.

In assay [3] the test system is GST-MUC1-CD(AQA). Description: Binding to GST-MUC1-CD(AQA) mutant. Particulars: CQC motif mutated to AQA; only background fluorescence; data not shown; FITC-labeled peptide, 1 h at 37°C. How it is done:
Binding affinities of FITC-GO-202 and FITC-GO-203 were determined by the saturation binding method. In short, 96-well glutathione- or nickel-coated plates (Thermo Fisher, Waltham, MA) were incubated with 150 μl of PBS buffer containing 21.45 μg/ml of GST-MUC1-CD, GST-MUC1-CD(AQA) or His-MUC1-CD overnight at 4°C followed by washing with 50 mM Tris and 150 mM NaCl containing 0.1% Tween-20 (TBST), and blocking with 0.5% BSA in TBS. The plates were then washed 3 times with TBST. FITC-GO-202 or FITC-GO-203 was added to the wells at 0.19 μM to 25 μM. Nonspecific binding was determined in the presence of GST alone. Plates were incubated for 1 h at 37°C on a shaker followed by washing 3 times with binding buffer. Fluorescence intensity was determined on an Infinite M1000 PRO Tecan Microplate Reader (Tecan, NC) with excitation at 490 nm and emission at 525 nm. GraphPad Prism 4.0 Software (San Diego, CA) was used to calculate the equilibrium dissociation constant (Kd) by a non-linear regression method.
Vectors expressing GST-MUC1-CD, GST-MUC1-CD(AQA) and His-MUC1-CD, GFP-MUC1-CD and FLAG-MUC1-CD have been described. His-tagged MUC1-CD (rat and dog) were cloned in pET28a vector (Clontech, Mountain View, CA) and expressed in E. coli BL21(DE3).

For assay [4], the system named is 293T cells. Briefly: Localization in untransfected 293T cells, immunofluorescence microscopy. The class given is cell-based. The following applies: FITC-GO-203 alone, 5 μM, 3 h. As to the method: as §1, §2
In assay [5] the test system is endogenous MUC1-C. Briefly: Binding to endogenous MUC1-C in ZR-75-1 cells, coimmunoprecipitation. It is filed as cell-based, human. The following applies: 5 μM FITC-GO-203 overnight, non-reducing. How it is done: as §1, §3

Non-standard residues stand in square brackets, D forms with d. Residues, ends and D or L forms follow the SMILES beside them. *: point of attachment. FITC = O=C1OC2(c3ccc(O)cc3Oc3cc(O)ccc32)c2ccc(NC(=S)*)cc21

The record followed here is PMC4534190, “Characterization of the MUC1-C Cytoplasmic Domain as a Cancer Target” (PLoS ONE, 2015).

Turning to `N=C(N)NCCC[C@@H](NC(=O)[C@@H](CCCNC(=N)N)NC(=O)[C@@H](CS)NC(=O)[C@@H](CCC(N)=O)NC(=O)[C@@H](CS)NC(=O)[C@@H](CCCNC(=N)N)NC(=O)[C@@H](CCCNC(=N)N)NC(=O)[C@@H](CCCNC(=N)N)NC(=O)[C@@H](CCCNC(=N)N)NC(=O)[C@@H](CCCNC(=N)N)NC(=O)[C@@H](CCCNC(=N)N)NC(=O)[C@@H](CCCNC(=N)N)NC(=O)[C@@H](CCCNC(=N)N)NC(=O)[C@@H](CCCNC(=N)N)NC(=S)Nc1ccc2c(c1)C(=O)OC21c2ccc(O)cc2Oc2cc(O)ccc21)C(=O)N[C@H](CCCCN)C(=O)N[C@H](CC(N)=O)C(=O)O` [FITC-GO-203] ({FITC}-[dR][dR][dR][dR][dR][dR][dR][dR][dR][dC][dQ][dC][dR][dR][dK][dN]-OH; N-terminus and C-terminus assumed), in assay [1] (293T cells expressing DsRedMN1-MUC1), the “co-localization of DsRed (MUC1) and FITC signals” value was “co-localization of the DSRed and FITC signals (Red+Green→Yellow) was observed along the membrane”. In addition, in assay [1] (293T cells), the “FITC staining in cells expressing MUC1 compared to the MUC1-null setting” value is “brighter”. Moreover, the “interaction with MUC1-C monomeric and oligomeric forms” value is “interacts with the different MUC1-C monomeric and oligomeric forms” in assay [2] (H1975 cells, entire immunoblots); “interacts with the different MUC1-C monomeric and oligomeric forms” in assay [5] (ZR-75-1 cells, entire immunoblots). The “association with endogenous MUC1-C” value in assay [2] (H1975 lung cancer cells, anti-MUC1-C precipitates, anti-FITC immunoblot) is “associates with endogenous MUC1-C”. Besides, the “interaction with GST-MUC1-CD(AQA)” value in assay [3] is “no interaction was evident”. In assay [4], the “localization of FITC signals” value was “localized along the membrane and in the cytosol”. The “complex formation with endogenous MUC1-C” value in assay [5] (ZR-75-1 breast cancer cells, anti-MUC1-C precipitates, anti-FITC immunoblot) is “forms complexes with MUC1-C”.
